Measured values as given in US20260022142A1, “MACROCYCLIC IMMUNOMODULATORS” (Bristol-Myers Squibb Company, priority 2022, published 2026).
Bridge positions count the residues as written; N and C are the ends. Square brackets hold non-standard residues; d marks the D form. Peptide text beside a SMILES is read from it. * marks the point of attachment. ξ: configuration not given here. Phe(4-CH2CH2COOH) = N[C@@H](Cc1ccc(CCC(=O)O)cc1)C(=O)O; Phe(4-COOH) = N[C@@H](Cc1ccc(C(=O)O)cc1)C(=O)O; Bip = N[C@@H](Cc1ccc(-c2ccccc2)cc1)C(=O)O; Phe(3-Me) = Cc1cccc(C[C@H](N)C(=O)O)c1; NH(CH2)12COOH = O=C(O)CCCCCCCCCCCCN*; Phe(2-Me) = Cc1ccccc1C[C@H](N)C(=O)O; 4Pal = N[C@@H](Cc1ccncc1)C(=O)O; Cha = N[C@@H](CC1CCCCC1)C(=O)O; Cit = NC(=O)NCCC[C@H](N)C(=O)O; Ile(3ξ) = CCC(C)[C@H](N)C(=O)O; Thr(3ξ) = CC(O)[C@H](N)C(=O)O; Tle = CC(C)(C)[C@H](N)C(=O)O; Carboxymethyl = O=C(O)C*; Nle = CCCC[C@H](N)C(=O)O; Orn = NCCC[C@H](N)C(=O)O; Aun = NCCCCCCCCCCC(=O)O; Dab = NCC[C@H](N)C(=O)O; Dap = NC[C@H](N)C(=O)O; AEEA = NCCOCCOCC(=O)O; Ac3c = NC1(C(=O)O)CC1

Target: T1, PD-1/PD-L1 interaction (PE-labeled human PD-L1-Ig binding to Jurkat cell line over-expressing human PD-1) (Homo sapiens, UniProt Q15116)
T1 construct: expressed in transfected cells; host or cells: Jurkat
Assay: Jurkat-PD-1 Cell Binding High-Content Screening Assay (CBA)
Format: cell-based
Details: Jurkat cell line over-expressing human PD-1; PE-labeled PD-L1-Ig 20 nM final; read-out: Jurkat hPD1-PDL1 IC50
Procedure, shortened: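 Human PD-L1-Ig carrying a covalent PE label on its Ig tag serves as the probe, applied at 20 nM final to compound-treated (2 h, 37° C) Jurkat-hPD-1 cells in medium with 10% fetal calf serum. After one hour, fixation and nuclear staining precede high-content image analysis.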

T1 sequence (Q15116 25-288): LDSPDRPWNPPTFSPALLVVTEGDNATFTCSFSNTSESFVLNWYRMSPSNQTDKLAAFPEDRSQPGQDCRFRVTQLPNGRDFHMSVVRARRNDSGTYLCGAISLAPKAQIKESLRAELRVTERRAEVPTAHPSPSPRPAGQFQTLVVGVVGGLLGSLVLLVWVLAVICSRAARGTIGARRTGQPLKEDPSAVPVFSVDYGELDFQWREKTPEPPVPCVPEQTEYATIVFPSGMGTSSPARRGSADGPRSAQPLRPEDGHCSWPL

| IC50 | SMILES |
| --- | --- |
| 0.0256 µM | CC(C)C[C@H]1NC(=O)[C@H](CCCN)NC(=O)[C@H](C(C)C)NC(=O)[C@H](Cc2ccc(-c3ccccc3)cc2)NC(=O)[C@H](C(C)C)NC(=O)[C@H](Cc2c[nH]c3ccccc23)NC(=O)[C@H](CC(=O)O)NC(=O)[C@H](Cc2ccc(OCC(=O)O)cc2)NC(=O)[C@H](CN)NC(=O)CSC[C@@H](C(=O)NCCOCCOCC(=O)N[C@H](C)C(=O)NCCCCCCCCCCC(=O)O)NC(=O)[C@H]([C@@H](C)O)NC(=O)[C@H](C(C)C)NC(=O)[C@H](CC2CCCCC2)NC(=O)[C@H](Cc2cnc[nH]2)NC1=O [Compound 1127] ({CH2CO}-[Dap]Y(Carboxymethyl)DWV[Bip]V[Orn][dL]H[Cha]VTC[AEEA][dA][Aun]-OH; thioether N-14) |
| 0.015 µM | Cc1cccc(C[C@@H]2NC(=O)[C@H](CC(=O)O)NC(=O)[C@H](Cc3ccc(OCC(=O)O)cc3)NC(=O)[C@H](C(C)O)NC(=O)CSC[C@@H](C(=O)N[C@H](CC(N)=O)C(=O)NCCCCCCCCCCC(=O)O)NC(=O)[C@H](C(C)O)NC(=O)[C@H](C(C)C)NC(=O)[C@H](CC3CCCCC3)NC(=O)[C@H](CCN)NC(=O)[C@@H](CC(C)C)NC(=O)[C@H](CCCNC(N)=O)NC(=O)[C@H](Cc3ccc(OCC(=O)O)cc3)NC(=O)[C@H](Cc3ccc(-c4ccccc4)cc3)NC(=O)[C@H](Cc3ccc(OCC(=O)O)cc3)NC2=O)c1 (stereo partly drawn) [Compound 3499] ({CH2CO}-[Thr(3ξ)]Y(Carboxymethyl)D[Phe(3-Me)]Y(Carboxymethyl)[Bip]Y(Carboxymethyl)[Cit][dL][Dab][Cha]V[Thr(3ξ)]C[dN][Aun]-OH; thioether N-14) |
| 0.015 µM | CCC(C)[C@@H]1NC(=O)[C@H](Cc2ccc(-c3ccccc3)cc2)NC(=O)[C@H](C(C)C)NC(=O)[C@H](Cc2c[nH]c3ccccc23)NC(=O)[C@H](CC(=O)O)NC(=O)[C@H](Cc2ccncc2)NC(=O)[C@H](C(C)O)NC(=O)CSC[C@@H](C(=O)N[C@@H](CC(N)=O)C(=O)NCCOCCOCC(=O)N[C@@H](CCCN)C(=O)NCCCCCCCCCCCCC(=O)O)NC(=O)[C@H](CO)NC(=O)[C@H](C(C)C)NC(=O)[C@H](CC2CCCCC2)NC(=O)[C@H](CCN)NC(=O)[C@@H](CC(C)C)NC(=O)[C@H](CCCN)NC1=O (stereo partly drawn) [Compound 3040] ({CH2CO}-[Thr(3ξ)][4Pal]DWV[Bip][Ile(3ξ)][Orn][dL][Dab][Cha]VSCN[AEEA][Orn]-{NH(CH2)12COOH}; thioether N-14) |
| 0.0168 µM | CC(=O)NCCCC[C@@H]1NC(=O)[C@H](Cc2ccc(OCC(=O)O)cc2)NC(=O)[C@H](Cc2ccc(-c3ccccc3)cc2)NC(=O)[C@H](Cc2ccc(OCC(=O)O)cc2)NC(=O)[C@H](Cc2cccc(C)c2)NC(=O)[C@H](CC(=O)O)NC(=O)[C@H](Cc2ccc(OCC(=O)O)cc2)NC(=O)[C@H](C(C)O)NC(=O)CSC[C@@H](C(=O)N[C@@H](CCN)C(=O)NCCCCCCCCCCC(=O)O)NC(=O)[C@H](C(C)O)NC(=O)[C@H](C(C)C)NC(=O)[C@H](CC2CCCCC2)NC(=O)[C@H](CCN)NC(=O)[C@@H](CC(C)C)NC1=O (stereo partly drawn) [Compound 3495] ({CH2CO}-[Thr(3ξ)]Y(Carboxymethyl)D[Phe(3-Me)]Y(Carboxymethyl)[Bip]Y(Carboxymethyl)K(Ac)[dL][Dab][Cha]V[Thr(3ξ)]C[Dab][Aun]-OH; thioether N-14) |

More lines, now with the values behind:

| SMILES | IC50 |
| --- | --- |
| Cc1cccc(C[C@@H]2NC(=O)[C@H](CC(=O)O)NC(=O)[C@H](Cc3ccc(OCC(=O)O)cc3)NC(=O)[C@H](CCN)NC(=O)CSC[C@@H](C(=O)N[C@@H](CCN)C(=O)NCCCCCCCCCCC(=O)O)NC(=O)[C@H](CO)NC(=O)[C@H](C(C)O)NC(=O)[C@H](CC3CCCCC3)NC(=O)[C@H](Cc3cnc[nH]3)NC(=O)[C@@H](CC(C)C)NC(=O)[C@H](CCCN)NC(=O)[C@H](Cc3ccc(OCC(=O)O)cc3)NC(=O)[C@H](Cc3ccc(-c4ccccc4)cc3)NC(=O)[C@H](Cc3ccc(OCC(=O)O)cc3)NC2=O)c1 (stereo partly drawn) [Compound 3672] ({CH2CO}-[Dab]Y(Carboxymethyl)D[Phe(3-Me)]Y(Carboxymethyl)[Bip]Y(Carboxymethyl)[Orn][dL]H[Cha][Thr(3ξ)]SC[Dab][Aun]-OH; thioether N-14) | 0.0207 µM |
| Cc1cccc(C[C@@H]2NC(=O)[C@H](CC(=O)O)NC(=O)[C@H](Cc3ccc(OCC(=O)O)cc3)NC(=O)[C@H](CN)NC(=O)CSC[C@@H](C(=O)NCCOCCOCC(=O)NCCCCCCCCCCC(=O)O)NC(=O)[C@H](CN)NC(=O)[C@H](Cc3ccc(O)cc3)NC(=O)[C@H](CC3CCCCC3)NC(=O)[C@H](CCN)NC(=O)[C@@H](CC(C)C)NC(=O)[C@H](CCCN)NC(=O)[C@H](Cc3ccc(O)cc3)NC(=O)[C@H](Cc3ccc(-c4ccccc4)cc3)NC(=O)[C@H](Cc3ccc(O)cc3)NC2=O)c1 [Compound 2518] ({CH2CO}-[Dap]Y(Carboxymethyl)D[Phe(3-Me)]Y[Bip]Y[Orn][dL][Dab][Cha]Y[Dap]C[AEEA][Aun]-OH; thioether N-14) | 0.207 µM |
| Cc1cccc(C[C@@H]2NC(=O)[C@H](CC(=O)O)NC(=O)[C@H](Cc3ccc(OCC(=O)O)cc3)NC(=O)[C@H](CN)NC(=O)CSC[C@@H](C(=O)N[C@@H](CCN)C(=O)NCCOCCOCC(=O)NCCCCCCCCCCC(=O)O)NC(=O)[C@H](CCC(=O)O)NC(=O)[C@H](C(C)C)NC(=O)[C@H](Cc3ccccc3C)NC(=O)[C@H](CCN)NC(=O)[C@@H](CC(C)C)NC(=O)[C@H](CCCN)NC(=O)[C@H](Cc3ccc(OCC(=O)O)cc3)NC(=O)[C@H](Cc3ccc(-c4ccccc4)cc3)NC(=O)[C@H](Cc3ccc(C(=O)O)cc3)NC2=O)c1 [Compound 1274] ({CH2CO}-[Dap]Y(Carboxymethyl)D[Phe(3-Me)][Phe(4-COOH)][Bip]Y(Carboxymethyl)[Orn][dL][Dab][Phe(2-Me)]VEC[Dab][AEEA][Aun]-OH; thioether N-14) | 0.0098 µM |
| Cc1cccc(C[C@@H]2NC(=O)[C@H](CC(=O)O)NC(=O)[C@H](Cc3ccc(OCC(=O)O)cc3)NC(=O)[C@H](CCN)NC(=O)CSC[C@@H](C(=O)N[C@@H](CCN)C(=O)NCCCCCCCCCCC(=O)O)NC(=O)[C@H](CO)NC(=O)[C@H](Cc3cnc[nH]3)NC(=O)[C@H](CC3CCCCC3)NC(=O)[C@H](CCN)NC(=O)[C@@H](CC(C)C)NC(=O)[C@H](CCCN)NC(=O)[C@H](Cc3ccc(OCC(=O)O)cc3)NC(=O)[C@H](Cc3ccc(-c4ccccc4)cc3)NC(=O)[C@H](Cc3ccc(OCC(=O)O)cc3)NC2=O)c1 [Compound 3632] ({CH2CO}-[Dab]Y(Carboxymethyl)D[Phe(3-Me)]Y(Carboxymethyl)[Bip]Y(Carboxymethyl)[Orn][dL][Dab][Cha]HSC[Dab][Aun]-OH; thioether N-14) | 0.0087 µM |
| Cc1cccc(C[C@@H]2NC(=O)[C@H](CC(=O)O)NC(=O)[C@H](Cc3ccc(OCC(=O)O)cc3)NC(=O)[C@H](CCCNC(=N)N)NC(=O)CSC[C@@H](C(=O)N[C@@H](CCN)C(=O)NCCCCCCCCCCC(=O)O)NC(=O)[C@H](CCC(N)=O)NC(=O)[C@H](C(C)(C)C)NC(=O)[C@H](CC3CCCCC3)NC(=O)[C@H](CCN)NC(=O)[C@@H](CC(C)C)NC(=O)[C@H](CCCN)NC(=O)[C@H](Cc3ccc(OCC(=O)O)cc3)NC(=O)[C@H](Cc3ccc(-c4ccccc4)cc3)NC(=O)[C@H](Cc3ccc(OCC(=O)O)cc3)NC2=O)c1 [Compound 3532] ({CH2CO}-RY(Carboxymethyl)D[Phe(3-Me)]Y(Carboxymethyl)[Bip]Y(Carboxymethyl)[Orn][dL][Dab][Cha][Tle]QC[Dab][Aun]-OH; thioether N-14) | 0.0075 µM |
| Cc1cccc(C[C@@H]2NC(=O)[C@H](CC(=O)O)NC(=O)[C@H](Cc3ccc(C(=O)O)cc3)NC(=O)[C@H](Cc3ccncc3)NC(=O)CSC[C@@H](C(=O)NC3(C(=O)NCCCCCCCCCCC(=O)O)CC3)NC(=O)[C@H]([C@@H](C)O)NC(=O)[C@H](C(C)C)NC(=O)[C@H](CC(C)C)NC(=O)[C@H](CCN)NC(=O)[C@@H](CC(C)C)NC(=O)[C@H](CCCN)NC(=O)[C@H](Cc3ccc(OCC(=O)O)cc3)NC(=O)[C@H](Cc3ccc(-c4ccccc4)cc3)NC(=O)[C@H](Cc3ccc(OCC(=O)O)cc3)NC2=O)c1 [Compound 2168] ({CH2CO}-[4Pal][Phe(4-COOH)]D[Phe(3-Me)]Y(Carboxymethyl)[Bip]Y(Carboxymethyl)[Orn][dL][Dab]LVTC[Ac3c][Aun]-OH; thioether N-14) | 0.0267 µM |
| Cc1cccc(C[C@@H]2NC(=O)[C@H](CC(=O)O)NC(=O)[C@H](Cc3ccc(OCC(=O)O)cc3)NC(=O)[C@H](CCCNC(=N)N)NC(=O)CSC[C@@H](C(=O)NC3(C(=O)NCCCCCCCCCCC(=O)O)CC3)NC(=O)[C@H]([C@@H](C)O)NC(=O)[C@H](C(C)C)NC(=O)[C@H](CC3CCCCC3)NC(=O)[C@H](CCN)NC(=O)[C@@H](CC(C)C)NC(=O)[C@H](CCCN)NC(=O)[C@H](Cc3ccc(OCC(=O)O)cc3)NC(=O)[C@H](Cc3ccc(-c4ccccc4)cc3)NC(=O)[C@H](Cc3ccc(CCC(=O)O)cc3)NC2=O)c1 [Compound 2132] ({CH2CO}-RY(Carboxymethyl)D[Phe(3-Me)][Phe(4-CH2CH2COOH)][Bip]Y(Carboxymethyl)[Orn][dL][Dab][Cha]VTC[Ac3c][Aun]-OH; thioether N-14) | 0.0115 µM |
| CCCC[C@@H]1NC(=O)CSC[C@@H](C(=O)N[C@@H](CCN)C(=O)NCCOCCOCC(=O)NCCOCCOCC(=O)NCCCCCCCCCCCCC(=O)O)NC(=O)[C@H](CCC(=O)O)NC(=O)[C@H](C(C)C)NC(=O)[C@H](CC2CCCCC2)NC(=O)[C@H](CCN)NC(=O)[C@@H](CC(C)C)NC(=O)[C@H](CCCN)NC(=O)[C@H](Cc2ccc(C(=O)O)cc2)NC(=O)[C@H](Cc2ccc(-c3ccccc3)cc2)NC(=O)[C@H](Cc2ccc(C(=O)O)cc2)NC(=O)[C@H](Cc2cccc(C)c2)NC(=O)[C@H](CC(=O)O)NC(=O)[C@H](Cc2ccc(OCC(=O)O)cc2)NC1=O [Compound 3809] ({CH2CO}-[Nle]Y(Carboxymethyl)D[Phe(3-Me)][Phe(4-COOH)][Bip][Phe(4-COOH)][Orn][dL][Dab][Cha]VEC[Dab][AEEA][AEEA]-{NH(CH2)12COOH}; thioether N-14) | 0.0154 µM |
